The text below walks through data of patent publication US4593090A, “Novel nitrosourea compounds, method for preparing same, and pharmaceutical composition containing same” (Gogo Kimura, priority 1981, dated 1986).

Each structure is given as a SMILES string. Where two headings read alike, the source gives them in different places. Some results are limits rather than exact numbers.

Data set [1] can be described thus: Acute toxicity (LD50, Behrens-Karber method). To be noted: mouse, in vivo, ip, mortality during 30 days. The format is in vivo, ICR mice. As for the experimental part:
Test compounds, dissolved or suspended in 0.5% aqueous CMC, were each intraperitoneally administered to ICR mice in a dose of 0.1 ml per 10 g body weight. LD50 (mg/kg) value of each test compound was calculated from the mortality of mice during 30 days by the Behrens-Karber method.

In data set [2] the test system is Ehrlich acites carcinoma. Put plainly: Growth-inhibiting effect against Ehrlich acites carcinoma. The format is in vivo, male mice. To be noted: Mus musculus, Ehrlich, 120 h, 5 days; for response vs control in vivo at 25 mg/kg: 25 mg/kg/day ip; for response vs control in vivo at 100 mg/kg: 100 mg/kg/day ip; for response vs control in vivo at 50 mg/kg: 50 mg/kg/day ip; for response vs control in vivo at 200 mg/kg: 200 mg/kg/day ip. As for the experimental part:
Ehrlich acites carcinoma (1×10^7 cells) was implantated into the abdominal cavities of a 6-membered group of male mice. Test compounds (solutions or suspensions in 1% Nikohl HCO-60) were each intraperioneally administered once a day 5 successive days to the mice 24 hrs. after the implantation. Total packed cell volumes [TPCV, namely, total packed volumes of Acites carcinoma] were determined 7 days after the implantation to calculate growth ratio of tumor [T/C%; T: packed volume of Acites carcinoma in treated groups, C: packed volume of Acites carcinoma in an untreated group]. Acitivity is represented by - when T/C% is 100-66, by + when T/C% 65-41, by ++ when T/C% 40-11, and by +++ when T/C% 10-0.

Data set [3] has as its system Leukemia L1210. In words: Activity against Leukemia L1210, intraperitoneal, increase in life span of mice. To be noted: for ED (maximum ILS) / ED30: Mus musculus, L1210, ip, ip once a day for 5 successive days; for ED (maximum ILS): daily dosage giving maximum increase of life span, read-out: O.D. (optimum dosage); for ED30: daily dosage increasing average survival days by 30%, read-out: ILS30; for Survivors after 60 days / Max. ILS % / Therapeutic ratio TR: ip; for Survivors after 60 days: 6-membered group; for Max. ILS %: 60-day observation, versus control; for Therapeutic ratio TR: O.D./ILS30. In kind it is in vivo, female mice (BDF1 family). In a few lines: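 Dosing started 24 h after ip implantation of 1×10^5 L1210 cells into groups of 6 female BDF1 mice, by ip or oral route daily for 5 consecutive days. Survival was followed for 60 days; increase in life span was scored against untreated mice, with therapeutic ratio from optimum dose over ILS30 dose.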

For orientation: LD50 means the dose expected to kill half of the subjects tested. The low end stands for a more toxic substance, the high end for a less toxic substance. As for `COc1cccc(CO[C@H]2O[C@H](CN(CC(C)C)C(=O)N(CCCl)N=O)[C@@H](O)[C@H](O)[C@H]2O)c1OC` [Compound 52, 3-isobutyl-3-(2,3-dimethoxybenzyl α-D-glucopyranose-6-yl)-1-(2-chloroethyl)-1-nitrosourea], the LD50 at 720 h in data set [1] came to 360 mg/kg. Besides, in data set [2] (read-out: Activity), the response vs control in vivo at 25 mg/kg was 0 to 10% and the response vs control in vivo at 100 mg/kg lay within 0 to 10%. In data set [2] (read-out: T/C %), the response vs control in vivo at 25 mg/kg is 0% and the response vs control in vivo at 100 mg/kg came to 0%. Further, in data set [3], the ED (maximum ILS) worked out at 120 mg/kg, the ED30 is 3.62 mg/kg, the “Survivors after 60 days” value is on record as 4/6 and the “Max. ILS %” value is recorded as > 420%. Also, the “Therapeutic ratio TR” value in data set [3] is on record as 33.1.

Consider `CC(C)(C)N(C[C@H]1O[C@H](OCC2CCCO2)[C@H](O)[C@@H](O)[C@@H]1O)C(=O)N(CCCl)N=O` (stereo partly drawn) [Compound 193, 3-tert-butyl-3-(tetrahydrofurfuryl α-D-glucopyranose-6-yl)-1-(2-chloroethyl)-1-nitrosourea], for which the LD50 at 720 h in data set [1] was 550 mg/kg. In addition, in data set [2] (read-out: Activity), the response vs control in vivo at 25 mg/kg is 0 to 10% and the response vs control in vivo at 100 mg/kg lay in the range of 0 to 10%. Moreover, in data set [2] (read-out: T/C %), the response vs control in vivo at 25 mg/kg came to 0% and the response vs control in vivo at 100 mg/kg came to 0%. Further, in data set [3], the ED (maximum ILS) worked out at 160 mg/kg, the ED30 is 2.52 mg/kg, the “Survivors after 60 days” value is on record as 6/6 and the “Max. ILS %” value was > 700%. Also, the “Therapeutic ratio TR” value in data set [3] came out at 63.4.

The compound `COCCCO[C@H]1O[C@H](CN(C(=O)N(CCCl)N=O)C(C)(C)C)[C@@H](O)[C@H](O)[C@H]1O` [Compound 179, 3-tert-butyl-3-(3-methoxy-n-propyl α-D-glucopyranose-6-yl)-1-(2-chloroethyl)-1-nitrosourea] returned an LD50 at 720 h in data set [1] of 560 mg/kg. In data set [2] (read-out: Activity), the response vs control in vivo at 25 mg/kg fell in the range of 0 to 10% and the response vs control in vivo at 100 mg/kg was 0 to 10%. In data set [2] (read-out: T/C %), the response vs control in vivo at 25 mg/kg came to 0% and the response vs control in vivo at 100 mg/kg is 0%. Also, in data set [3], the ED (maximum ILS) was 180 mg/kg, the ED30 turned out to be 2.79 mg/kg, the “Survivors after 60 days” value is reported as 6/6 and the “Max. ILS %” value is reported as > 700%. The “Therapeutic ratio TR” value in data set [3] was 64.4.

As for `CCCCOC1OC(CO)C(O)C(N(CCCOC)C(=O)N(CCCl)N=O)C1O` [Compound 82, 3-(3-methoxy-n-propyl)-3-(n-butyl α-D-glucopyranose-3-yl)-1-(2-chloroethyl)-1-nitrosourea], the LD50 at 720 h in data set [1] came to 655 mg/kg. Also, in data set [2] (read-out: Activity), the response vs control in vivo at 25 mg/kg fell in the range of 0 to 10% and the response vs control in vivo at 100 mg/kg was 0 to 10%. Further, in data set [2] (read-out: T/C %), the response vs control in vivo at 25 mg/kg amounted to 0% and the response vs control in vivo at 100 mg/kg stood at 0%. In addition, in data set [3], the ED (maximum ILS) stood at 200 mg/kg, the ED30 was 5.5 mg/kg, the “Survivors after 60 days” value is recorded as 3/6 and the “Max. ILS %” value is reported as > 345%. Also, the “Therapeutic ratio TR” value in data set [3] is reported as 30.4.

In data set [1], `CCOCCN(C[C@H]1O[C@H](OC2CCCCC2)[C@H](O)[C@@H](O)[C@@H]1O)C(=O)N(CCCl)N=O` [Compound 40, 3-(2-ethoxyethyl)-3-(cyclohexyl α-D-glucopyranose-6-yl)-1-(2-chloroethyl)-1-nitrosourea] returned an LD50 at 720 h of 545 mg/kg. For the same compound, in data set [2] (read-out: Activity), the response vs control in vivo at 25 mg/kg is 0 to 10% and the response vs control in vivo at 100 mg/kg was in the range of 0 to 10%. Also, in data set [2] (read-out: T/C %), the response vs control in vivo at 25 mg/kg worked out at 0% and the response vs control in vivo at 100 mg/kg turned out to be 0%. In data set [3], the ED (maximum ILS) stood at 170 mg/kg, the ED30 turned out to be 2.66 mg/kg, the “Survivors after 60 days” value is 6/6 and the “Max. ILS %” value is > 700%. Also, the “Therapeutic ratio TR” value in data set [3] was determined as 63.9.

In turn, `CCCCO[C@H]1O[C@H](CN(C)C(=O)N(CCCl)N=O)[C@@H](O)[C@H](O)[C@H]1O` [Compound 3, 3-methyl-3-(n-butylα-D-glucopyranose-6-yl)-1-(2-chloroethyl)-1-nitrosourea] had an LD50 at 720 h in data set [1] of 260 mg/kg. In data set [2] (read-out: Activity), the response vs control in vivo at 50 mg/kg fell in the range of 11 to 40% and the response vs control in vivo at 200 mg/kg fell in the range of 0 to 10%. In data set [2] (read-out: T/C %), the response vs control in vivo at 50 mg/kg was determined as 22.4% and the response vs control in vivo at 200 mg/kg is 0%. Moreover, in data set [3], the ED (maximum ILS) amounted to 90 mg/kg, the ED30 was 2.7 mg/kg, the “Survivors after 60 days” value is given as 6/6 and the “Max. ILS %” value is > 700%. Moreover, in data set [3], the “Therapeutic ratio TR” value stood at 33.3.

In turn, `CCCCN(C[C@H]1O[C@H](OCCCOC)[C@H](O)[C@@H](O)[C@@H]1O)C(=O)N(CCCl)N=O` [Compound 30, 3-n-butyl-3-(3-methoxy-n-propyl-α-D-glucopyranose-6-yl)-1-(2-chloroethyl)-1-nitrosourea] displayed an LD50 at 720 h in data set [1] of 450 mg/kg. Also, in data set [2] (read-out: Activity), the response vs control in vivo at 25 mg/kg fell in the range of 0 to 10% and the response vs control in vivo at 100 mg/kg fell in the range of 0 to 10%. Further, in data set [2] (read-out: T/C %), the response vs control in vivo at 25 mg/kg was found to be 0% and the response vs control in vivo at 100 mg/kg was determined as 0%. In data set [3], the ED (maximum ILS) amounted to 150 mg/kg, the ED30 is 2.61 mg/kg, the “Survivors after 60 days” value is 6/6 and the “Max. ILS %” value is listed as > 700%. The “Therapeutic ratio TR” value in data set [3] came out at 57.5.

Take `CCN(C[C@H]1O[C@H](OCC(C)C)[C@H](O)[C@@H](O)[C@H]1O)C(=O)N(CCCl)N=O` [Compound 108, 3-ethyl-3-(isobutyl α-D-galactopyranose-6-yl)-1-(2-chloroethyl)-1-nitrosourea]: the LD50 at 720 h in data set [1] was 390 mg/kg. Moreover, in data set [2] (read-out: Activity), the response vs control in vivo at 50 mg/kg is 0 to 10% and the response vs control in vivo at 200 mg/kg is 0 to 10%. Also, in data set [2] (read-out: T/C %), the response vs control in vivo at 50 mg/kg came to 7.8% and the response vs control in vivo at 200 mg/kg is 0%. Besides, in data set [3], the ED (maximum ILS) stood at 130 mg/kg, the ED30 stood at 4.24 mg/kg, the “Survivors after 60 days” value is 3/6 and the “Max. ILS %” value was > 320%. For the same compound, in data set [3], the “Therapeutic ratio TR” value is recorded as 30.7.

In data set [1], `COCCCN(C[C@H]1O[C@H](OCC(C)C)[C@@H](O)[C@@H](O)[C@H]1O)C(=O)N(CCCl)N=O` [Compound 146, 3-(3-methoxy-n-propyl)-3-(isobutyl α-D-talopyranose-6-yl)-1-(2-chloroethyl)-1-nitrosourea] returned an LD50 at 720 h of 595 mg/kg. Further, in data set [2] (read-out: Activity), the response vs control in vivo at 25 mg/kg was 0 to 10% and the response vs control in vivo at 100 mg/kg lay in the range of 0 to 10%. In addition, in data set [2] (read-out: T/C %), the response vs control in vivo at 25 mg/kg was 0% and the response vs control in vivo at 100 mg/kg was 0%. For the same compound, in data set [3], the ED (maximum ILS) turned out to be 180 mg/kg, the ED30 stood at 3.19 mg/kg, the “Survivors after 60 days” value was 5/6 and the “Max. ILS %” value was > 620%. The “Therapeutic ratio TR” value in data set [3] amounted to 56.4.

With `COC(C)CN(C[C@H]1O[C@H](OC2CCCCC2)[C@H](O)[C@@H](O)[C@@H]1O)C(=O)N(CCCl)N=O` (stereo partly drawn) [Compound 41, 3-(2-methoxy-n-propyl)-3-(cyclohexyl α-D-glucopyranose-6-yl)-1-(2-chloroethyl)-1-nitrosourea], the LD50 at 720 h in data set [1] stood at 580 mg/kg. In data set [2] (read-out: Activity), the response vs control in vivo at 25 mg/kg was 0 to 10% and the response vs control in vivo at 100 mg/kg was 0 to 10%. Moreover, in data set [2] (read-out: T/C %), the response vs control in vivo at 25 mg/kg worked out at 0% and the response vs control in vivo at 100 mg/kg is 0%. Also, in data set [3], the ED (maximum ILS) amounted to 180 mg/kg, the ED30 came to 2.72 mg/kg, the “Survivors after 60 days” value is listed as 6/6 and the “Max. ILS %” value is > 700%. For the same compound, in data set [3], the “Therapeutic ratio TR” value was 66.2.

Compound `CCC(C)N(C[C@H]1O[C@H](OCCOCOC)[C@H](O)[C@@H](O)[C@H]1O)C(=O)N(CCCl)N=O` (some centres unmarked) [Compound 115] displayed an LD50 at 720 h in data set [1] of 600 mg/kg. In addition, in data set [2] (read-out: Activity), the response vs control in vivo at 25 mg/kg was in the range of 0 to 10% and the response vs control in vivo at 100 mg/kg is 0 to 10%. Besides, in data set [2] (read-out: T/C %), the response vs control in vivo at 25 mg/kg amounted to 0% and the response vs control in vivo at 100 mg/kg was 0%. In addition, in data set [3], the ED (maximum ILS) is 200 mg/kg, the ED30 was 3.2 mg/kg, the “Survivors after 60 days” value was 6/6 and the “Max. ILS %” value is listed as > 700%. Further, in data set [3], the “Therapeutic ratio TR” value worked out at 62.5.
